Like-named read-outs stand apart in the source and are kept apart here.
What was measured:
dCK-C3S-S74E [1] = experiment: Enzymatic assay (PK/LDH coupled), dC phosphorylation by dCK in the presence of UTP; type: biochemical, human; conditions: presence of UTP
Method: (§1) For enzymatic assays, cells were re-suspended in 20 mM TRIS, pH 8 500 mM NaCl, 0.1% BRIJ-35 and 5% glycerol buffer and one EDTA free anti-protease tablet was added (Roche). After sonication and centrifugation (30,000 × g), the supernatant was loaded on a 5 ml HisTrap FF column (GE healthcare) pre-equilibrated with 20 mM TRIS, pH 8, 500 mM NaCl, 0.01% BRIJ-35 and 5% glycerol buffer. The protein was then eluted by the same buffer containing 250 mM imidazole after a wash containing 25 mM imidazole. The eluted fraction was applied on a HiPrep 26/10 desalting column (GE healthcare) pre-equilibrated with 20 mM TRIS, pH 8, 500 mM NaCl, 5% glycerol and 0.01% BRIJ-35 buffer. Finally, protein in a 20% glycerol buffer was flash frozen in liquid nitrogen and stored at −80 °C.
Kinetic analyses were performed using a spectrophotometric continuous enzymatic-coupled assay using pyruvate kinase (PK) and lactate dehydrogenase (LDH). […] UTP is the physiological dCK-phosphate donor[46] and it was used to determine activation versus inhibition behavior. ATP was used to calculate IC50 values, as it allows the analysis of a dose response curve. The PK/LDH coupled assay is based on the conversion of phosphoenolpyruvate (PEP) and UDP/ADP to pyruvate and UTP/ATP by PK and the subsequent conversion of pyruvate to lactate by LDH. The latter step requires NADH, which is oxidized to NAD^+. NADH is fluorescent (excitation at 337 nm and emission at 460 nm), but not NAD^+. Thus, the measurement of fluorescent decrease at 460 nm is a measure of kinase activity. dCK experiments were performed in a buffer containing 50 mM HEPES, pH 7.5, 5 mM MgCl2, 1 mM DTT, and 100 mM KCl. Buffer was supplemented with PK (0.01 U/µl), LDH (0.02 U/µl), PEP (1 mM), NADH (300 µM) and compounds at varying concentrations. For UTP assays, protein concentration was 2 μM, substrate 200 µM (dC), and UTP 1 mM. For ATP assays, protein concentration was 100 nM (and 50 nM when indicated), substrate 100 µM (dC), and ATP 1 mM. All measurements were performed on a microplate reader Pherastar FS (BMG Labtech). All assays were performed in triplicate and each experiment was performed at least twice. The data are presented as mean ± SD. The results were plotted as kinetics and the velocity was determined for each condition as the slope of the linear range of the curve. For each compound concentration, the velocity of the reaction (according to V = d[P]/dt) was normalized with respect to the drug free control and velocity ratios were compared. IC50 values corresponding to enzymatic inhibition in ATP were calculated by nonlinear regression curves using GraphPad Prism software 9.4.0.

CCRF-CEM cell line = experiment: dCK cellular assay: CCRF-CEM proliferation in the presence of dT and dC; type: cell-based, human
Method: The dCK cellular assay was set up to assess the ability to inhibit dCK activity in a cellular model. The model was developed with a T-cell acute lymphoblastic leukemia cell line (CCRF-CEM), because of its high dependence on the SP, thus on dCK activity. Cellular assays were performed to assess the inhibition of cell proliferation under two conditions: (i) in the presence of the compound alone to determine the nonspecific effect on cells, independent of dCK (nonspecific toxicity) and (ii) in the presence of an inhibitor of the DNP to determine the ability of compounds to inhibit dCK and decrease tumor proliferation (activity on dCK). The inhibitor of the DNP chosen for the experiments was thymidine (dT), a physiological inhibitor of ribonucleotide reductase which arrests cell proliferation in phase S. The dTTP produced via thymidine kinase from dT acts as a RNR inhibitor by an allosteric regulation of the R1 subunit. The addition of the nucleoside deoxycytidine (dC) in the medium allows the rescue of cell proliferation by passing only through the salvage pathway, mediated by dCK. dC needs to be added exogenously to mimic physiological concentrations because it is not present in the cell culture medium, on the contrary to mouse model, in which it is naturally present in the serum. Therefore, cell proliferation under these conditions (+dT +dC) is dCK dependent and it is possible to determine the IC50 of dCK inhibitors on the inhibition of cell proliferation. Results are expressed as % cell proliferation relative to the control with DMSO.
The amount of reduced dye formed by metabolically active cells was quantified by its fluorescence measured at 560 nm (excitation) and 590 nm (emission) in a microplate reader (CLARIOstar, BMG Labtech). A blank well without cells was used as a background control. Each experiment was performed at least three times (with technical triplicates) and data are presented as the mean ± SD.

dCK-C3S-S74E [2] = experiment: Enzymatic assay (PK/LDH coupled), dC phosphorylation by dCK in the presence of ATP; type: biochemical, human; conditions: presence of ATP, [dCK] = 100 nM; read-out: ENZYMATIC ASSAY IC50
Method: as §1
Kinetic analyses were performed using a spectrophotometric continuous enzymatic-coupled assay using pyruvate kinase (PK) and lactate dehydrogenase (LDH). Analysis of the effect of compounds on dCK-C3S-S74E activity was performed using dC as substrate and UTP/ATP as phosphate donors. UTP is the physiological dCK-phosphate donor[46] and it was used to determine activation versus inhibition behavior. ATP was used to calculate IC50 values, as it allows the analysis of a dose response curve. The PK/LDH coupled assay is based on the conversion of phosphoenolpyruvate (PEP) and UDP/ADP to pyruvate and UTP/ATP by PK and the subsequent conversion of pyruvate to lactate by LDH. The latter step requires NADH, which is oxidized to NAD^+. NADH is fluorescent (excitation at 337 nm and emission at 460 nm), but not NAD^+. Thus, the measurement of fluorescent decrease at 460 nm is a measure of kinase activity. dCK experiments were performed in a buffer containing 50 mM HEPES, pH 7.5, 5 mM MgCl2, 1 mM DTT, and 100 mM KCl. Buffer was supplemented with PK (0.01 U/µl), LDH (0.02 U/µl), PEP (1 mM), NADH (300 µM) and compounds at varying concentrations. For UTP assays, protein concentration was 2 μM, substrate 200 µM (dC), and UTP 1 mM. For ATP assays, protein concentration was 100 nM (and 50 nM when indicated), substrate 100 µM (dC), and ATP 1 mM. All measurements were performed on a microplate reader Pherastar FS (BMG Labtech). All assays were performed in triplicate and each experiment was performed at least twice. The data are presented as mean ± SD. The results were plotted as kinetics and the velocity was determined for each condition as the slope of the linear range of the curve. For each compound concentration, the velocity of the reaction (according to V = d[P]/dt) was normalized with respect to the drug free control and velocity ratios were compared. IC50 values corresponding to enzymatic inhibition in ATP were calculated by nonlinear regression curves using GraphPad Prism software 9.4.0.

dCK-C3S-S74E [3] = experiment: Thermal shift assay (TSA); conditions: for THERMAL SHIFT ASSAY +Tm (°): mean ± SD; for ΔTm (º) (TSA): Figure 2a, mean
[4] = Homo sapiens, read-out: dCK CELLULAR ASSAY IC50 (nM), CCRF-CEM, 200 µM dT and 1 µM dC, read-out: dCK […] ASSAY IC50
[5] = Homo sapiens, Figure 2a, CCRF-CEM cell line, mean, read-out: IC50 (nM) (Cell Prolif)

Sequence of dCK-C3S-S74E (P27707 whole entry S74E, form open): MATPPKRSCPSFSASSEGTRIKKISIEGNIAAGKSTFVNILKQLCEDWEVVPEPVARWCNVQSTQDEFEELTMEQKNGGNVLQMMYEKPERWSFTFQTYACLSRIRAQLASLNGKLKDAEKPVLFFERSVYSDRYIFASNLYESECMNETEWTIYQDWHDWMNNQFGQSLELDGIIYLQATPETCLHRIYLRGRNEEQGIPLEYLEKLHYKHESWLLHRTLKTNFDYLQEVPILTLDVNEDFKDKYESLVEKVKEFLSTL

Structure (SMILES)	ENZYMATIC ASSAY (Activation/Inhibition) (dCK-C3S-S74E [1])	IC50 (CCRF-CEM cell line; [4])	IC50 (dCK-C3S-S74E [2])	THERMAL SHIFT ASSAY +Tm (°) (dCK-C3S-S74E [3])	IC50 (CCRF-CEM cell line; [5])	ΔTm (º) (TSA) (dCK-C3S-S74E [3])	IC50 (CCRF-CEM cell line; Figure 2a, CCRF-CEM cell line, mean, read-out: IC50 (nM) (Cell Prolif))
CCCN(c1nc(-c2nccc(N)n2)cs1)c1cc(NC(=O)c2ccc(CN3CCN(C)CC3)cc2)ccc1C [OR0105]	I	1620 ± 254 nM	2140 ± 49 nM	14.5 ± 0.2 °			
Cc1ccc(NC(=O)c2ccc(CCN3CCN(C)CC3)cc2)cc1Nc1nc(-c2nccc(N)n2)cs1 [OR0146]	A/I	14600 ± 1190 nM	3460 ± 349 nM	14.8 ± 0.4 °			
Cc1ccc(C#Cc2ccc(CN3CCN(C)CC3)cc2)cc1Nc1nc(-c2nccc(N)n2)cs1 [OR0153]	A/I	2180 ± 388 nM	2040 ± 684 nM	16.9 ± 0.4 °			
Cc1ccc(NC(=O)c2ccc(CN(C)C)cc2)cc1Nc1nc(-c2nccc(N)n2)cs1 [OR0155]	A/I	13800 ± 394 nM	7780 ± 2330 nM	10.9 ± 0.4 °			
Cc1ccc(NC(=O)c2ccc(CN3CC4(CN(C)C4)C3)cc2)cc1Nc1nc(-c2nccc(N)n2)cs1 [OR0156]	A/I	> 40000 nM	6380 ± 2080 nM	12.6 ± 0.1 °			
Cc1ccc(OCc2ccc(CN3CCN(C)CC3)cc2)cc1Nc1nc(-c2nccc(N)n2)cs1 [OR0232]	A/I	3460 ± 638 nM	1940 ± 529 nM	15.2 ± 0.0 °			
Cc1ccc(C#Cc2ccc(CN(C)C)cc2)cc1Nc1nc(-c2nccc(N)n2)cs1 [OR0237]	A/I	3340 ± 1450 nM	2140 ± 387 nM	15.3 ± 0.5 °			
Cc1ccc(NC(=O)c2ccc(CN3CCN(C)CC3)cc2)cc1Nc1nc(-c2ncc(F)c(N)n2)cs1 [OR0239]	A/I	14800 ± 1580 nM	3350 ± 1070 nM	14.3 ± 0.4 °			
Cc1ccc(NC(=O)c2ccc(CN3CCN(C)CC3)s2)cc1Nc1nc(-c2nccc(N)n2)cs1 [OR0241]	A/I	14200 ± 1160 nM	3770 ± 2190 nM	13.5 ± 0.0 °			
CN1CCN(Cc2ccc(C(=O)Nc3ccc4c(c3)N(c3nc(-c5nccc(N)n5)cs3)CCCC4)cc2)CC1 [OR0289]	A/I	3920 ± 461 nM	3400 ± 564 nM	15.9 ± 0.5 °			
Cc1ccc(-c2ccc(O)cc2)cc1Nc1nc(-c2nccc(N)n2)cs1 [OR0320]	A/I	6770 ± 2810 nM	1760 ± 385 nM	15.0 ± 0.2 °			
CCCN(c1nc(-c2nc(N)cc(N)n2)cs1)c1cc(-c2cnc(N)nc2)ccc1C [OR0613]	I			14.5 ± 0.7 °	703 nM	14.5 º	
CCCN(c1nc(-c2nc(N)cc(N)n2)cs1)c1cc(-c2ccc(S(=O)(=O)C3CCNCC3)cc2)ccc1C [OR0646]				22.4 ± 1.1 °	171 nM	22.39 º	
CCCN(c1nc(-c2nc(N)cc(N)n2)cs1)c1cc(-c2c(F)cc(S(=O)(=O)N3CCN(C)CC3)cc2F)ccc1C [OR0647]		10.9 ± 4.1 nM		21.1 ± 1.6 °	11 nM	21.06 º	
CCCN(c1nc(-c2nc(N)cc(N)n2)cs1)c1cc(-c2ccc(S(=O)(=O)N3CCC(N)CC3)cc2)ccc1C [OR0648]				22.3 ± 1.1 °	134 nM	22.28 º	
CCCN(c1nc(-c2nc(N)cc(N)n2)cs1)c1cc(-c2ccc(S(=O)(=O)N3CCN(C)CC3)c(OC(F)(F)F)c2)ccc1C [OR0650]				18.6 ± 1.5 °	120 nM	18.61 º	
CCCN(c1nc(-c2nc(N)cc(N)n2)cs1)c1cc(-c2ccc(S(=O)(=O)NCCN)cc2)ccc1C [OR0651]		1520 ± 178 nM		20.8 ± 1.2 °	1530 nM	20.83 º	
CCCN(c1nc(-c2nc(N)cc(N)n2)cs1)c1cc(-c2cnc(S(=O)(=O)N3CCN(C)CC3)cc2C)ccc1C [OR0652]						19.17 º	7.3 nM

— publication PMC10227015, “From a drug repositioning to a structure-based drug design approach to tackle acute lymphoblastic leukemia” (Nature Communications, 2023)
